According to ChEMBL document CHEMBL1201862, “PubChem BioAssay data set” (2004):
Activity calls are given as the source filed them.

Columns and labels:
[1] = target: Eukaryotic translation initiation factor 4H (Homo sapiens, UniProt Q15056); assay: human eIF4H binding inhibitors, primary screen, translation initiation inhibitor project, biochemical, uHTS, fluorescence polarization (AID 2012)
[2] = target: Polyadenylate-binding protein 1 (Homo sapiens, UniProt P11940); assay: PABP poly(A) RNA binding inhibitors, primary screen, biochemical, fluorescence polarization, uHTS (AID 2014)
[3] = target: T1, DNA dC->dU-editing enzyme APOBEC-3A (Homo sapiens, UniProt P31941); assay: Dose Response confirmation of small molecule APOBEC3A DNA Deaminase Inhibitors via a fluorescence-based single-stranded DNA deaminase assay. [Related pubchem assays (depositor defined):AID493011, AID493024]; format: functional
[4] = target: T2, DNA dC->dU-editing enzyme APOBEC-3G (Homo sapiens, UniProt Q9HC16); format: functional
[5] = system: Streptococcus sp. 'group A'; assay: growth inhibition of control SK(-) GAS strain, dose response, counter-screen for streptokinase expression inhibitor project, luminescence, kanamycin, BacTiterGlo, confirmation (AID 1900); format: functional, organism-based
Streptokinase A = target: T3, Streptokinase A (Streptococcus pyogenes serotype M1, UniProt P10520); assay: S. pyogenes streptokinase expression inhibitors, potency, dose response, plasminogen activation absorbance, OD405 (AID 1914); format: functional, Streptococcus pyogenes M1 GAS;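 also: secreted streptokinase activity via plasminogen activation per viability signal from cell pellet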
T3 sequence (P10520 whole entry): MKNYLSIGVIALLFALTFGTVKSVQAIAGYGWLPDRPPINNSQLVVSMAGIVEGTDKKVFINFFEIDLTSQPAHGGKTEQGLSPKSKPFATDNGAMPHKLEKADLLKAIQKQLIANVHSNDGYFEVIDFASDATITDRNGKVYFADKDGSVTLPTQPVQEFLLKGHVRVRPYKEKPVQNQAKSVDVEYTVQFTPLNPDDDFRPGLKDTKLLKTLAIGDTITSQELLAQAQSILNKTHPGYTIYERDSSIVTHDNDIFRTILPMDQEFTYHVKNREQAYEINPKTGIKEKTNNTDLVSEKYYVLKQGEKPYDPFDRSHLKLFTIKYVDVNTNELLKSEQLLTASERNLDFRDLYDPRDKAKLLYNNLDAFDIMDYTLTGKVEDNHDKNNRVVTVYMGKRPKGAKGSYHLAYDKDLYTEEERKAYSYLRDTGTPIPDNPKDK

[6] = inhibitors of intracellular T. cruzi replication, confirmation, NIH3T3 host cells, beta-gal luminescence (AID 2044); format: functional, cell-based;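 also: intracellular parasites grown in NIH/3T3 mouse fibroblasts as host cells; luminescent beta-galactosidase reporter signal from transgenic T. cruzi replicating inside host cells; inhibitors lower the luminescence signal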
[7] = target: T4, Kappa-type opioid receptor (Homo sapiens, UniProt P41145); format: functional
[8] = cytotoxicity toward NIH3T3 fibroblasts, dose response, counter-screen, cell-based, ATP luminescence, mouse fibroblasts (AID 2010); format: functional;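 also: cells exposed to compound for about 90 hours before reading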
Beta-galactosidase = Beta-galactosidase (Escherichia coli, UniProt Q8VNN2); format: functional
[9] = target: T4, Kappa-type opioid receptor; format: functional; remark: listed apart in the source
Streptococcus = assay: Group A Streptococcus viability loss, dose response, counter-screen for streptokinase expression inhibitor project, luminescence, BacTiterGlo (AID 1915); format: functional, organism-based;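 also: potency for reduction of bacterial viability or growth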
[10] = target: Heat shock protein HSP 90-alpha (Homo sapiens, UniProt P07900); format: functional, organism-based
INS1 = assay: beta cell apoptosis inhibitors, cytokine rescue, dose response, luminescence, retest (AID 449756); format: functional, cell-based; conditions: Rattus norvegicus;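 also: cell death triggered by IL-1 beta plus TNF-alpha plus IFN-gamma mixture; protective hits raise ATP signal compared with cytokine alone wells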
Aminopeptidase N = target: T5, Aminopeptidase N (Plasmodium falciparum FcB1/Columbia, UniProt O96935); assay: P. falciparum M1AAP inhibitors, biochemical, fluorogenic H-Leu-NHMec substrate, 1536-well (AID 1445); design: species or system Plasmodium falciparum 3D7, 3D7
T5 sequence (O96935 whole entry): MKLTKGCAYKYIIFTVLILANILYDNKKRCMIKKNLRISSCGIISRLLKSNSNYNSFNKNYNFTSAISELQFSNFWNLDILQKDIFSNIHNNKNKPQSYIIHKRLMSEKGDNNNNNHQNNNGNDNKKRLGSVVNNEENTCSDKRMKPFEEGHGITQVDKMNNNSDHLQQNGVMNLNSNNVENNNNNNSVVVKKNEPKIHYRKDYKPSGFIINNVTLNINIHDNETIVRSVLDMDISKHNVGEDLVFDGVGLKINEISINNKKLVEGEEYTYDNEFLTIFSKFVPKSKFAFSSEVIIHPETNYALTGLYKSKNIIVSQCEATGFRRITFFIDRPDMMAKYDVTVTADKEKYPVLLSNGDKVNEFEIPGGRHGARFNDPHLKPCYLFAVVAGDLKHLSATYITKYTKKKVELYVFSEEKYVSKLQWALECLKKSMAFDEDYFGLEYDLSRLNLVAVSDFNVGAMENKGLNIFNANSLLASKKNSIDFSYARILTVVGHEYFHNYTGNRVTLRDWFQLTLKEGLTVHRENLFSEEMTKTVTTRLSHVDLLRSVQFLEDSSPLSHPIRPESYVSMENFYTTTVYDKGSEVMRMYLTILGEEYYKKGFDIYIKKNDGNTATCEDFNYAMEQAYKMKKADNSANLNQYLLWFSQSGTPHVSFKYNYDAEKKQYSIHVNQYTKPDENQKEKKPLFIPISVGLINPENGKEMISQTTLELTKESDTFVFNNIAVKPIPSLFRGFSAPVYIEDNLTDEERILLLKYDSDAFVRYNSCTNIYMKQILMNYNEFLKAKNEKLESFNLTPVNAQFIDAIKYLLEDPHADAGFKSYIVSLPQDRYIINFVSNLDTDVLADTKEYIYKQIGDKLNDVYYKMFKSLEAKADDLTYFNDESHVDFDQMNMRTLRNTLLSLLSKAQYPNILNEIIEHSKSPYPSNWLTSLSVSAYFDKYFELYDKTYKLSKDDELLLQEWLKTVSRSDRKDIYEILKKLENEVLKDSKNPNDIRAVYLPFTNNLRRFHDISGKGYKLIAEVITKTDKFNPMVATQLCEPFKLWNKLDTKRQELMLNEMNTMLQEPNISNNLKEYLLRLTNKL

[11] = target: T6, RNA-binding protein pos-1 (Caenorhabditis elegans, UniProt G5EF15); assay: inhibitors of POS-1/mex-3 RNA binding, dose response, biochemical, fluorescence polarization (AID 1964);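 also: purified POS-1 fused to maltose binding protein made in E. coli; potency of compounds blocking POS-1 binding to fluorescent RNA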
T6 sequence (G5EF15 whole entry): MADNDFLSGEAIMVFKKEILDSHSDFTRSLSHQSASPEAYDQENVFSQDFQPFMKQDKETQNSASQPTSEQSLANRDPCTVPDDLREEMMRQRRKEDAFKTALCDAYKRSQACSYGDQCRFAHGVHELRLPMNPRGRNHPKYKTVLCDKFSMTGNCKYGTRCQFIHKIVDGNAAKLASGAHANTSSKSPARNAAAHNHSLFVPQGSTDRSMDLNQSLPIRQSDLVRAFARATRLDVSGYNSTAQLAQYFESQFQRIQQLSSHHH

[12] = target: T7, Zinc finger protein mex-5 (Caenorhabditis elegans, UniProt Q9XUB2); assay: MEX-5/TCR-2 RNA interaction inhibitors, dose response, biochemical, C. elegans, fluorescence polarization (AID 1960)
T7 sequence (Q9XUB2 whole entry): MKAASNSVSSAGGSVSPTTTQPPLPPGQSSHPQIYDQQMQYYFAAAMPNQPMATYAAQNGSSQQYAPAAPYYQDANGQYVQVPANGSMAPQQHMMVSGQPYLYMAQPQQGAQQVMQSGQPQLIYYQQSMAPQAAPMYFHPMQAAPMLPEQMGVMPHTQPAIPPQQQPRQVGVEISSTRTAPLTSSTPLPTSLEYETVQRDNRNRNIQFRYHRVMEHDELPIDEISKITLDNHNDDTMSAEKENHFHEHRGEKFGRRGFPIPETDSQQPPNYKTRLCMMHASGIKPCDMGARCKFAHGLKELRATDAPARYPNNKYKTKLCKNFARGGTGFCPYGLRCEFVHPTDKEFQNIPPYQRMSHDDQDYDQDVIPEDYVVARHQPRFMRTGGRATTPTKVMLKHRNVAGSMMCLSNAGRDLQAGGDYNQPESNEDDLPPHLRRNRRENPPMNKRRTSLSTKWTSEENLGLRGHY

Large T antigen = Large T antigen (Simian virus 40, UniProt P03070); format: functional, Betapolyomavirus macacae;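 also: Confirmatory-stage PubChem screen for compounds that inhibit SV40 T antigen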
[13] = target: Induced myeloid leukemia cell differentiation protein Mcl-1 (Homo sapiens, UniProt Q07820); format: functional
[14] = target: Neurotensin receptor type 1 (Homo sapiens, UniProt P30989); format: functional;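 also: Image-based confirmatory dose-response assay measuring agonist activity at NTR1; NTR1-expressing U2OS osteosarcoma cells imaged for beta-arrestin GFP spot formation; agonist potency where compounds increase beta-arrestin recruitment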
[15] = target: T8, Microphthalmia-associated transcription factor (Homo sapiens, UniProt O75030); assay: TRPM1 promoter luciferase signal decrease, dose response, MITF inhibitor project, cell-based, SK-MEL-5, cherry-picked, set 3 (AID 493073); format: functional
T8 sequence (O75030 whole entry): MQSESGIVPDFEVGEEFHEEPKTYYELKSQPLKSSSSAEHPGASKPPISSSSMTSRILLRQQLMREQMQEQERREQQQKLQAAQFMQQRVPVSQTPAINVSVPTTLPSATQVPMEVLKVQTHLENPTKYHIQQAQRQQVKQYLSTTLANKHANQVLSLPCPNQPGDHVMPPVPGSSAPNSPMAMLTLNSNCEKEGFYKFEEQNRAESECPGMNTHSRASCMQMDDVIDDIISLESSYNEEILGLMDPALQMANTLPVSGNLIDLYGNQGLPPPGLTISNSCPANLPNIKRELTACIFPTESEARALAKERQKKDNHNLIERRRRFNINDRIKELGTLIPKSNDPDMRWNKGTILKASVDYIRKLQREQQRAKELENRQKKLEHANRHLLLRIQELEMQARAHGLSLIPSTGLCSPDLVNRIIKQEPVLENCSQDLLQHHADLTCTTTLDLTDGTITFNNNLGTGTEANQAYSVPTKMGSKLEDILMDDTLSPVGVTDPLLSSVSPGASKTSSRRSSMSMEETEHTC

[16] = target: T1, DNA dC->dU-editing enzyme APOBEC-3A; assay: APOBEC3A DNA deaminase inhibitors, dose response, biochemical (AID 504722); format: functional
[17] = target: T2, DNA dC->dU-editing enzyme APOBEC-3G; assay: Dose Response confirmation of small molecule APOBEC3G DNA Deaminase Inhibitors via a fluorescence-based single-stranded DNA deaminase assay. [Related pubchem assays (depositor defined):AID493012, AID493028]; format: functional
[18] = target: T9, Rac GTPase-activating protein 1 (Homo sapiens, UniProt Q9H0H5); assay: MgcRacGAP GTPase-activating activity inhibitors, confirmation, biochemical, ADP Hunter fluorescence, primary and confirmatory (AID 624330); format: functional
T9 sequence (Q9H0H5 whole entry): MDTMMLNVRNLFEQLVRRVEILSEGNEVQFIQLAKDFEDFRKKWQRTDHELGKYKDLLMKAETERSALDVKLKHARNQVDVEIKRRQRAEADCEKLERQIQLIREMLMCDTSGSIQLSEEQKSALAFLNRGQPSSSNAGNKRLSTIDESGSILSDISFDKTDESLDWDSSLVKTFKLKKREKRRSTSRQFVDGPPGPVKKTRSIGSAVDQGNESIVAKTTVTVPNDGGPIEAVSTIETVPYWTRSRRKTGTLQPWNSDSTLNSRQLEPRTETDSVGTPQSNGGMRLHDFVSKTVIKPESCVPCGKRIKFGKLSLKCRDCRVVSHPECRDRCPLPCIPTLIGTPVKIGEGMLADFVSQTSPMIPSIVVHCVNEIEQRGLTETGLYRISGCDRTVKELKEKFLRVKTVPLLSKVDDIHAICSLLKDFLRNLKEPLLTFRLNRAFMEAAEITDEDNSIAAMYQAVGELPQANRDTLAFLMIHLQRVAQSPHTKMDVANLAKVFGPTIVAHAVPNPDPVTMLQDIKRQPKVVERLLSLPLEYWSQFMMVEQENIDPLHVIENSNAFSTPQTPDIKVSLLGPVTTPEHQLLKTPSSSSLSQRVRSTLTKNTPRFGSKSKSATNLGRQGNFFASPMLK

[19] = THP-1 cell cytotoxicity, dose response, cytotoxicity control for non-replicating M. tuberculosis project (AID 489025); format: functional
[20] = HepG2 cell cytotoxicity, dose response, cytotoxicity control for non-replicating M. tuberculosis project (AID 489018); format: functional; conditions: Mycobacterium tuberculosis
[21] = Vero E6 cell cytotoxicity, dose response, cytotoxicity control for non-replicating M. tuberculosis project, secondary assay (AID 492998); format: functional, VeroE6; conditions: Vero C1008
cells = format: functional

T2 sequence (Q9HC16 whole entry): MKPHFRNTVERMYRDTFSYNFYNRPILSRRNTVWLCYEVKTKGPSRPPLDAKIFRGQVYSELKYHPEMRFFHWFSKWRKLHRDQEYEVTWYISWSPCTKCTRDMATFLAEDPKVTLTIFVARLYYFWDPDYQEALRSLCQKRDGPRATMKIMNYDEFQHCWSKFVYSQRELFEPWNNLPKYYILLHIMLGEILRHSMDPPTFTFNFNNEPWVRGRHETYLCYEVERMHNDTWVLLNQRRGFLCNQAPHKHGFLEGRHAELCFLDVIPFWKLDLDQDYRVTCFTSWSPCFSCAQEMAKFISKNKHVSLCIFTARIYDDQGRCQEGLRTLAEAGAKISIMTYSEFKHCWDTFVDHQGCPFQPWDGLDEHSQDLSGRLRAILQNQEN
T1 sequence (P31941 whole entry): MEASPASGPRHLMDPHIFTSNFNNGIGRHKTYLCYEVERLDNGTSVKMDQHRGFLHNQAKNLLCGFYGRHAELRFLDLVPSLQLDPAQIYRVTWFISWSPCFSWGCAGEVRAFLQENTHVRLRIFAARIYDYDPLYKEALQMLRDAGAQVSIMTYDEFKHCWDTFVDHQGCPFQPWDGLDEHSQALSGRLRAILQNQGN
T4 sequence (P41145 whole entry): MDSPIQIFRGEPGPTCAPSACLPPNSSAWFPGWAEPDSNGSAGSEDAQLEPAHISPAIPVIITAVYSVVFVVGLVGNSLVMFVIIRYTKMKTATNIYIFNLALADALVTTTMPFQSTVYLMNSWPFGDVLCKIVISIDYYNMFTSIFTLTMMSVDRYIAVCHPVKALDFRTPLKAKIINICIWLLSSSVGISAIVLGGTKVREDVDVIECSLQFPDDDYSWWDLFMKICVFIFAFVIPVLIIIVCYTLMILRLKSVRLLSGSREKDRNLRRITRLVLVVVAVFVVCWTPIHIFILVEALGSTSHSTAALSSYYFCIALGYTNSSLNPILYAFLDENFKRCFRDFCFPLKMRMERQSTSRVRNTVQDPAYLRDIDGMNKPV
Sequence of Large T antigen (P03070 whole entry): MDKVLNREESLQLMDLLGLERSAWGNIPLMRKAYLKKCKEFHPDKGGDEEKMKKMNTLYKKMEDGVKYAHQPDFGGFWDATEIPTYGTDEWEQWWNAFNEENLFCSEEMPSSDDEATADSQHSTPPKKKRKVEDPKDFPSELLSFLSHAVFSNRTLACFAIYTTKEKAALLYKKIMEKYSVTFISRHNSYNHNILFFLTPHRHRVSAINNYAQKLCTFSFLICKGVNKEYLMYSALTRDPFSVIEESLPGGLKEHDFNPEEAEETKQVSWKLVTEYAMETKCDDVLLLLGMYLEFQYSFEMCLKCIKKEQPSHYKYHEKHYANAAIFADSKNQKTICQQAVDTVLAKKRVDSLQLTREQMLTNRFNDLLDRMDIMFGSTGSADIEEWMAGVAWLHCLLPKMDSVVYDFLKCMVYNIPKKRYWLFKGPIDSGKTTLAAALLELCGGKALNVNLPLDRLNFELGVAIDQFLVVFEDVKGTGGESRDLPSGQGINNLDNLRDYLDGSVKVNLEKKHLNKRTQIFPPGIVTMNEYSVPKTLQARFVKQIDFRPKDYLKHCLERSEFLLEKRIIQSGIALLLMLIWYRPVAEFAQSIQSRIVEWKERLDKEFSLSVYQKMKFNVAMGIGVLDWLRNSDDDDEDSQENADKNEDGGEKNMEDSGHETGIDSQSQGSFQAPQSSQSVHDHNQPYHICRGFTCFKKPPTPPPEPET
Sequence of Induced myeloid leukemia cell differentiation protein Mcl-1 (Q07820 whole entry): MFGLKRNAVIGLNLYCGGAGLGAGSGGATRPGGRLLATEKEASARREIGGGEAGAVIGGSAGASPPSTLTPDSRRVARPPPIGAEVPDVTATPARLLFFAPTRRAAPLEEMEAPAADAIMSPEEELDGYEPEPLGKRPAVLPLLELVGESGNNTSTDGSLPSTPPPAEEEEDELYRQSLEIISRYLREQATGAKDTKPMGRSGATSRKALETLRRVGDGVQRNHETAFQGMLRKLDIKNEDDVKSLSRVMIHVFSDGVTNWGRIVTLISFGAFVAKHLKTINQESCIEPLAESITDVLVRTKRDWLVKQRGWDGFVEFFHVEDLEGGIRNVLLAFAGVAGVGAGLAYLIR
Sequence of Neurotensin receptor type 1 (P30989 whole entry): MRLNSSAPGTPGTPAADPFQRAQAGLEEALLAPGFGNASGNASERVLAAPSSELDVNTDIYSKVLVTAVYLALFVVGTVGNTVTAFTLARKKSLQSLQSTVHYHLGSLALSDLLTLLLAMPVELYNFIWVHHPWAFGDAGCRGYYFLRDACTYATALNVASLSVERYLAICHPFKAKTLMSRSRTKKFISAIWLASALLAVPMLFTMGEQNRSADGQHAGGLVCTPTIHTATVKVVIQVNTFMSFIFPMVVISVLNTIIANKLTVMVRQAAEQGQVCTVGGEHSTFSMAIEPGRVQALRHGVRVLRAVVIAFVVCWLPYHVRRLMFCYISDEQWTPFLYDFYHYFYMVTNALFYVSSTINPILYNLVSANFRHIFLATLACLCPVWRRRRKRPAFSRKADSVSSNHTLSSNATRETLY
Sequence of Beta-galactosidase (Q8VNN2 whole entry): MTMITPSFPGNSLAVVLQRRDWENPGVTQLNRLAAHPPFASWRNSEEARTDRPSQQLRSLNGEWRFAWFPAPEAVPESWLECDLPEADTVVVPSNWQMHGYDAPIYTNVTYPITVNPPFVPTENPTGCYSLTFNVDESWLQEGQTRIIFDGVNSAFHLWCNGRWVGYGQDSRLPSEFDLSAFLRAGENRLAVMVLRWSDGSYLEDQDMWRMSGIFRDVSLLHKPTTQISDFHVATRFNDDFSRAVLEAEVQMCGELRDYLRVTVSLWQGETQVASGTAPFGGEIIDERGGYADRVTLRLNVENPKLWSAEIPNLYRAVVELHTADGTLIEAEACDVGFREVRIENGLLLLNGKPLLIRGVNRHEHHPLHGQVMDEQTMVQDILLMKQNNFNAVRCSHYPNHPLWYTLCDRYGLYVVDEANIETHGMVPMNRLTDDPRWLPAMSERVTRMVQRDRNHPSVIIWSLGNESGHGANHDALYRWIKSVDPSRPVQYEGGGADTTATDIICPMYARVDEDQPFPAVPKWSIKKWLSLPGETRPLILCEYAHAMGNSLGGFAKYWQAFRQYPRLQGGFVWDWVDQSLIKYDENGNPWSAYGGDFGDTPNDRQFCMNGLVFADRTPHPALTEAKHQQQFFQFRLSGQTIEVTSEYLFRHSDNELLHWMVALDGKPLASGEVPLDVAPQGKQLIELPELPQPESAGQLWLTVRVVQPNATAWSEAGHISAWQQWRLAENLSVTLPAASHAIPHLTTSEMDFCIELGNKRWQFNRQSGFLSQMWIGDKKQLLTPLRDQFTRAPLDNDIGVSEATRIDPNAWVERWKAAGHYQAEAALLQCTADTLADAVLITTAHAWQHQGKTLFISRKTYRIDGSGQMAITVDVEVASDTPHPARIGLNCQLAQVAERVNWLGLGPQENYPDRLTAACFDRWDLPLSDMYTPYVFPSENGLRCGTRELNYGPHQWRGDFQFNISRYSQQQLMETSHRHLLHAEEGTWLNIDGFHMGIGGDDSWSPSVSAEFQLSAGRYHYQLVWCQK
Sequence of Polyadenylate-binding protein 1 (P11940 whole entry): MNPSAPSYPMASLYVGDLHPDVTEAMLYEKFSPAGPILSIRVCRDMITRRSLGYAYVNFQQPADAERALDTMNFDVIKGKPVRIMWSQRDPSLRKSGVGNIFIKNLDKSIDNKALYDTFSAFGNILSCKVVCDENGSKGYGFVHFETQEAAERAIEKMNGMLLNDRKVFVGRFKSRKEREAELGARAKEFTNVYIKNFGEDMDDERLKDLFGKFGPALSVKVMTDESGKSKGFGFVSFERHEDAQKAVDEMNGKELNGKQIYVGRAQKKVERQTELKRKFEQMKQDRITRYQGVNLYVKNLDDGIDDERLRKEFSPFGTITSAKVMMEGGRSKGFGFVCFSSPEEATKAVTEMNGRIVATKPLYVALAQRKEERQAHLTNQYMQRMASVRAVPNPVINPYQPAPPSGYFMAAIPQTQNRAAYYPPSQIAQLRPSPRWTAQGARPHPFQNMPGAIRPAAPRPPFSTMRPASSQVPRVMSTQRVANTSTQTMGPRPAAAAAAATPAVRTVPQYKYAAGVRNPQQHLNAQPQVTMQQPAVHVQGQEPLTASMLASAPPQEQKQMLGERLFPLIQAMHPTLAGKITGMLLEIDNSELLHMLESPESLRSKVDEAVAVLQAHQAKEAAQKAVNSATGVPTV

CCN(CC)C(=O)CC(c1ccc2c(c1)OCO2)c1c(OC)cc(OC)c2ccc(=O)oc12 (stereo not given)
IC50 [1]: 10.3 µM (active) | IC50 [2]: 20.1 µM (active)

C=CCNC(=O)c1ccccc1NC(=O)C1CCN(S(=O)(=O)c2ccc(SC)cc2)CC1
IC50 [3]: 5.28 µM (active) | IC50 [4]: 6.15 µM (active)

Cc1[nH]c(N=Nc2ccccc2)nc1N=Nc1ccccc1
EC50 [5]: 3.49 µM (active) | EC50 (Streptokinase A): 23.4 µM (active) | EC50 [6]: 1.12 µM (active) | IC50 [7]: 8.4 µM (active) | EC50 [8]: 4.45 µM (active) | EC50 (Beta-galactosidase): 17.4 µM (active) | IC50 [9]: > 32 µM | EC50 (Streptococcus): > 50 µM (not active) | AC50 [10]: 3.76 µM (active) | AC50 (INS1): 3.72 µM (active)

Nc1cc(C(=O)O)c(N)c2c1C(=O)c1ccccc1C2=O
IC50 (Aminopeptidase N): 58.9 µM (active) | EC50 [11]: 4.27 µM (active) | EC50 [12]: 2.39 µM (active) | IC50 (Large T antigen): 21.9 µM (active) | IC50 [13]: 3.71 µM (active)

CCOC(=O)/C=c1\s/c(=C\c2ccc3cc(OC)ccc3c2)c(=O)n1CC(=O)NCC1CCCO1 (stereo not given)
EC50 [11]: 90.4 µM (active) | EC50 [12]: > 300 µM (not active) | EC50 [14]: 7.15 µM (active) | AC50 [15]: 5.73 µM (active)

Cc1cccc(-c2nnc(S)n2/N=C/c2ccco2)c1
IC50 [16]: > 100 µM (inactive) | IC50 [17]: 2.1 µM (active) | IC50 [18]: 89.6 µM (active)

Sc1nnc(-c2ccco2)n1/N=C/c1c(Cl)cccc1Cl
IC50 [16]: > 100 µM (inactive) | IC50 [17]: 5.03 µM (active)

O=C(Cc1cccs1)N/N=C\c1ccc([N+](=O)[O-])s1
EC50 [6]: 0.36 µM (active) | EC50 [8]: 17.5 µM (active) | CC50 [19]: 15.3 µM (active) | CC50 [20]: 17.7 µM (active) | CC50 [21]: 11.5 µM (active) | IC50 (cells): 9.65 µM (active) | AC50 (INS1): 6.28 µM (active)
